Measurements reported in ChEMBL document CHEMBL1143071, “Sodium pancratistatin 3,4-o-cyclic phosphate, a water-soluble synthetic derivative of pancratistatin, is highly effective in a human colon tumor model” (J Nat Prod, 2008).
Active and inactive are the calls of the source. The rule behind the calls is not given here.

Columns and labels:
[1] = test system: DLD-1; test: Antitumor activity in human DLD1 cells xenografted CD1 immunodeficient nude mouse after 24 hrs assessed as increase in tumor necrosis; type: functional
[2] = test system: HUVEC; test: Disruption of normal microtubule structure in HUVEC cells at 440 nM; type: functional, cell-based; conditions: Homo sapiens
[3] = test system: DLD-1; test: Disruption of normal microtubule structure in human DLD1 cells at 440 nM; type: functional, cell-based
[4] = test system: DLD-1; test: Antitumor activity in human DLD1 cells xenografted CD1 immunodeficient nude mouse after 24 hrs assessed as decrease in functional vasculature; set-up: scale not given: the % may be the effect or the level left
[5] = test system: DLD-1; test: Antitumor activity in human DLD1 cell xenografted CD1 immunodeficient nude mouse assessed as weight loss; type: functional
[6] = test system: DLD-1; test: Antitumor activity in human DLD1 cell xenografted CD1 immunodeficient nude mouse assessed as mean tumor doubling time; type: functional
[7] = test system: HUVEC; test: Disruption of normal microtubule structure in HUVEC cells at 250 uM after 1 hr; type: functional, cell-based; conditions: Homo sapiens
[8] = test system: HUVEC; test: (§1) Disruption of normal microtubule structure in HUVEC cells at 250 uM after 3 hrs; type: functional, cell-based; conditions: Homo sapiens
[9] = test system: DLD-1; test: Antitumor activity in human DLD1 cell xenografted CD1 immunodeficient nude mouse at 100 mg/kg, iv assessed as weight loss; type: functional
[10] = test system: DLD-1; test: Antitumor activity in human DLD1 cells xenografted CD1 immunodeficient nude mouse at 100 mg/kg after 24 hrs assessed as decrease in functional vasculature; set-up: scale not given: the % may be the effect or the level left
[11] = test system: DLD-1; test: Reduction in mitochondrial membrane potential in human DLD1 cells at 250 uM after 24 hrs assessed as decrease in fluorescence of mitoTracker green FM; type: functional, cell-based
[12] = test system: HUVEC; test: as §1; type: functional, cell-based; conditions: Homo sapiens; remark: listed apart in the source
[13] = test system: DLD-1; test: Reduction in mitochondrial membrane potential in human DLD1 cells at 250 uM after 4 hrs assessed as decrease in fluorescence of mitoTracker green FM; type: functional, cell-based
[14] = test system: DLD-1; test: Antitumor activity in human DLD1 cell xenografted CD1 immunodeficient nude mouse at 100 mg/kg, iv assessed as mean tumor doubling time; type: functional
[15] = test system: DLD-1; test: Cell cycle arrest in human DLD1 cells assessed as accumulation at G2/M phase at 25 uM; type: functional, cell-based
[16] = test system: DLD-1; test: Antitumor activity against human DLD1 cells after 1 hr by MTT assay; type: functional, cell-based; conditions: DLD-1, 1 h
[17] = test system: DLD-1; test: Antitumor activity in human DLD1 cells xenografted CD1 immunodeficient nude mouse at 100 mg/kg after 24 hrs assessed as increase in tumor necrosis; type: functional
[18] = test system: DLD-1; test: Antitumor activity against human DLD1 cells after 96 hrs; type: functional, cell-based; conditions: DLD-1, 96 h
[19] = test system: DLD-1; test: Reduction in mitochondrial membrane potential in human DLD1 cells at 250 uM after 7 hrs assessed as decrease in fluorescence of mitoTracker green FM; type: functional, cell-based

Structure (SMILES) | Activity [1] [%] | Activity [2] | Activity [3] | Activity [4] [%] | Activity [5] [%] | Activity [6] [days] | Activity [7] | Activity [8] | Activity [9] [%] | Activity [10] [%] | Activity [11] | Activity [12] | Activity [13] | Activity [14] [days] | Activity [15] | IC50 [16] [µM] | Activity [17] [%] | IC50 [18] [µM] | Activity [19]
CC(=O)O[C@H]1C(=O)[C@@]2(C)[C@H]([C@H](OC(=O)c3ccccc3)[C@]3(O)C[C@H](OC(=O)[C@H](O)[C@@H](NC(=O)c4ccccc4)c4ccccc4)C(C)=C1C3(C)C)[C@]1(OC(C)=O)CO[C@@H]1C[C@@H]2O [PACLITAXEL] | 8.1 | Active | Active | 6.5 | 0.5 | 6.2 |  |  |  |  |  |  |  |  |  |  |  |  | 
O=C1N[C@H]2[C@@H]3OP(=O)([O-])O[C@@H]3[C@@H](O)[C@H](O)[C@@H]2c2cc3c(c(O)c21)OCO3.[Na+] |  |  |  |  |  |  | inactive | inactive | 8.8 | 0.6 | Active | inactive | Active | 15.1 | inactive | 253 | 95.3 | 19.7 | Active
